According to patent publication US11006600B2, “Rice cultivar designated ‘CL272’” (Board of Supervisors of Louisiana State University and …, priority 2016, dated 2021):

System: rice cultivar 'CL272'
Assay: Herbicide tolerance and susceptibility characteristics of rice variety 'CL272'
Format: in vivo, Oryza sativa
Conditions: for response of 'CL272' rice to the herbicide (resistant / sensitive): at levels of the herbicide that would normally inhibit the growth of a rice plant; for resistance of 'CL272' rice to imidazolinone herbicides, general statement: in vivo
Excerpt: Among others, the herbicide tolerance and susceptibility characteristics of ‘CL272’ include or are expected to include the following. These characteristics are in some cases based on actual observations to date, and in other cases reflect assumptions based on direct descent from ‘CL161’: […]

Row | Structure (SMILES) | response of 'CL272' rice to the herbicide (resistant / sensitive) | resistance of 'CL272' rice to imidazolinone herbicides, general statement
1 | COC(=O)c1ccccc1S(=O)(=O)NC(=O)Nc1nc(C)nc(OC)n1 [metsulfuron methyl] | resistant | –
2 | CCS(=O)(=O)c1cccnc1S(=O)(=O)NC(=O)Nc1nc(OC)cc(OC)n1 [rimsulfuron] | sensitive | –
3 | CC(C)C1(C)N=C(c2ncccc2C(=O)O)NC1=O (centres unmarked) [imazapyr] | resistant | –
4 | Cc1cnc(C2=NC(=O)C(C)(C(C)C)N2)c(C(=O)O)c1 (centres unmarked) [imazapic] | resistant | –
5 | CCOC(=O)c1ccccc1S(=O)(=O)NC(=O)Nc1nc(Cl)cc(OC)n1 [chlorimuron ethyl] | sensitive | –
6 | COCc1cnc(C2=NC(C)(C(C)C)C(=O)N2)c(C(=O)O)c1 (centres unmarked) [imazamox] | resistant | highly resistant
7 | COC(=O)c1ccccc1S(=O)(=O)NC(=O)N(C)c1nc(C)nc(OC)n1 [tribenuron methyl] | resistant | –
8 | CC(C)C1(C)N=C(c2nc3ccccc3cc2C(=O)O)NC1=O (centres unmarked) [imazaquin] | resistant | –
9 | COc1cc(OC)nc(NC(=O)NS(=O)(=O)c2ncccc2C(=O)N(C)C)n1 [nicosulfuron] | resistant | –
10 | COC(=O)c1ccccc1S(=O)(=O)NC(=O)Nc1nc(C)cc(C)n1 [sulfometuron methyl] | sensitive | –
11 | COC(=O)c1sccc1S(=O)(=O)NC(=O)Nc1nc(C)nc(OC)n1 [thifensulfuron methyl] | resistant | –
12 | CCc1cnc(C2=NC(C)(C(C)C)C(=O)N2)c(C(=O)O)c1 (centres unmarked) [imazethapyr] | resistant | highly resistant
